{"source": "patent EP0171942A1", "about": "“Antitumor composition” (Takeda Chemical Industries, Ltd., priority 1984, dated 1986)", "key": {"Lewis lung carcinoma": {"tested_on": "Lewis lung carcinoma", "assay": "Antitumor effect test using Lewis lung carcinoma (subcutaneous tumor fragment implant, tumor weight on day 10)", "assay_type": "in vivo, mouse", "details": "oral, once daily for 7 days", "description": "The antitumor composition according to the invention was tested for antitumor effect using Lewis lung carcinoma. Thus, each female Fl mouse [C57BL/6 x DBA/2] weighing 18 ± 1 .g was implanted with a tumor fragment about 2 mm^3 in volume subcutaneously into the axillary site using a trocar. Starting from 24 hours after tumor implantation, the above- mentioned compound 4 and uracil were orally administered combinedly in the proportion given below in Table 1 once daily for 7 days, and the antitumor effect was compared with that attained when each of them was administered singly. The sample agent was suspended in a 0.5% solution of gum arabic in physiological saline just before daily administration such that the dose amounted to 0.2 ml/20 g body weight. Ten days after tumor implantation, the tumor was excised and weighed, and the average tumor weight ratio (T/C %) between the dosed group (T, group of 5 animals) and the control group (C, group of 10 animals) was calculated. The daily dose was expressed in terms of number of moles per kilogram of body weight (mM/kg)."}, "colon carcinoma 26": {"tested_on": "colon carcinoma 26", "assay": "Antitumor effect test using colon carcinoma 26 (subcutaneous tumor fragment implant, tumor weight on day 10)", "assay_type": "in vivo, mouse", "details": "oral, once a day for 7 days", "description": "The antitumor composition according to the invention was further tested for antitumor effect using colon carcinoma 26. Thus, each female F1 mouse [BALB/c x DBA/2] weighing 21 ± 1 g was subcutaneously implanted with a tumor fragment (about 2 mm3) into the axillary site using a trocar. Starting from 24 hours after tumor implantation, the above- mentioned compound 4 and uracil were orally administered combinedly on the proportion given below in Table 2 once a day for 7 days, and the antitumor effect was compared with that attained by single administration of either of them. The test agent was suspended in a 0.5% solution of gum arabic in physiological saline daily just before administration such that the dose amounted to 0.2 ml/20 g body weight. Ten days after tumor implantation, the tumor was excised and weighed, and the average tumor weight ratio (T/C %) between the dosed group (T, group of 5 animals) and the control group (C, group of 20 animals) was calculated. The daily dose was expressed in terms of number of moles per kilogram of body weight (mM/kg)."}, "[1]": {"details": "compound 4 0.1 mM/kg alone, tumor excised 10 days after implantation"}, "[2]": {"details": "compound 4 0.2 mM/kg alone, day 10"}, "[3]": {"details": "compound 4 0.4 mM/kg alone, day 10"}, "[4]": {"details": "compound 4 0.8 mM/kg alone, day 10"}}, "data": [{"smiles": "CC(C)COC(=O)C1(F)C(=O)NC(=O)NC1O/N=C/c1ccco1", "note": "(centres unmarked) [compound 4, Isobutyl 5-fluoro-4-[(E)-furfurylideneaminooxy]-2,6-dioxohexahydropyrimidine-5-carboxylate]", "values": [{"measurement": "T/C", "setting": "Lewis lung carcinoma; [1]", "value": 54, "unit": "%"}, {"measurement": "Tumor weight", "setting": "Lewis lung carcinoma; [1]", "value": 138, "unit": "mg"}, {"measurement": "T/C", "setting": "Lewis lung carcinoma; [2]", "value": 42, "unit": "%"}, {"measurement": "Tumor weight", "setting": "Lewis lung carcinoma; [2]", "value": 107, "unit": "mg"}, {"measurement": "T/C", "setting": "Lewis lung carcinoma; [3]", "value": 31, "unit": "%"}, {"measurement": "Tumor weight", "setting": "Lewis lung carcinoma; [3]", "value": 80, "unit": "mg"}, {"measurement": "T/C", "setting": "Lewis lung carcinoma; [4]", "value": 19, "unit": "%"}, {"measurement": "Tumor weight", "setting": "Lewis lung carcinoma; [4]", "value": 49, "unit": "mg"}, {"measurement": "T/C", "setting": "colon carcinoma 26; [1]", "value": 96, "unit": "%"}, {"measurement": "Tumor weight", "setting": "colon carcinoma 26; [1]", "value": 190, "unit": "mg"}, {"measurement": "T/C", "setting": "colon carcinoma 26; [2]", "value": 29, "unit": "%"}, {"measurement": "Tumor weight", "setting": "colon carcinoma 26; [2]", "value": 57, "unit": "mg"}, {"measurement": "T/C", "setting": "colon carcinoma 26; [3]", "value": 1, "unit": "%"}, {"measurement": "Tumor weight", "setting": "colon carcinoma 26; [3]", "value": 2, "unit": "mg"}, {"measurement": "T/C", "setting": "colon carcinoma 26; [4]", "value": 0, "unit": "%"}, {"measurement": "Tumor weight", "setting": "colon carcinoma 26; [4]", "value": 0, "unit": "mg"}]}, {"smiles": "O=c1cc[nH]c(=O)[nH]1", "note": "[uracil]", "values": [{"measurement": "T/C", "setting": "Lewis lung carcinoma; uracil 0.4 mM/kg alone, day 10", "value": 125, "unit": "%"}, {"measurement": "Tumor weight", "setting": "Lewis lung carcinoma; uracil 0.4 mM/kg alone, day 10", "value": 319, "unit": "mg"}, {"measurement": "T/C", "setting": "Lewis lung carcinoma; uracil 0.8 mM/kg alone, day 10", "value": 224, "unit": "%"}, {"measurement": "Tumor weight", "setting": "Lewis lung carcinoma; uracil 0.8 mM/kg alone, day 10", "value": 572, "unit": "mg"}, {"measurement": "T/C", "setting": "Lewis lung carcinoma; uracil 1.6 mM/kg alone, day 10", "value": 197, "unit": "%"}, {"measurement": "Tumor weight", "setting": "Lewis lung carcinoma; uracil 1.6 mM/kg alone, day 10", "value": 502, "unit": "mg"}, {"measurement": "T/C", "setting": "Lewis lung carcinoma; uracil 3.2 mM/kg alone, day 10", "value": 169, "unit": "%"}, {"measurement": "Tumor weight", "setting": "Lewis lung carcinoma; uracil 3.2 mM/kg alone, day 10", "value": 432, "unit": "mg"}, {"measurement": "T/C", "setting": "colon carcinoma 26; uracil 0.4 mM/kg alone, day 10", "value": 113, "unit": "%"}, {"measurement": "Tumor weight", "setting": "colon carcinoma 26; uracil 0.4 mM/kg alone, day 10", "value": 223, "unit": "mg"}, {"measurement": "T/C", "setting": "colon carcinoma 26; uracil 0.8 mM/kg alone, day 10", "value": 87, "unit": "%"}, {"measurement": "Tumor weight", "setting": "colon carcinoma 26; uracil 0.8 mM/kg alone, day 10", "value": 173, "unit": "mg"}, {"measurement": "T/C", "setting": "colon carcinoma 26; uracil 1.6 mM/kg alone, day 10", "value": 86, "unit": "%"}, {"measurement": "Tumor weight", "setting": "colon carcinoma 26; uracil 1.6 mM/kg alone, day 10", "value": 170, "unit": "mg"}, {"measurement": "T/C", "setting": "colon carcinoma 26; uracil 3.2 mM/kg alone, day 10", "value": 98, "unit": "%"}, {"measurement": "Tumor weight", "setting": "colon carcinoma 26; uracil 3.2 mM/kg alone, day 10", "value": 194, "unit": "mg"}]}]}
